Assay results as given in patent US8524911B2, “3-arylamino pyridine derivatives” (Merck Serono SA, priority 2004, dated 2013).
Counter-ions that a name gives are not always drawn.

Tests used:
Murine colon C26 cells = experiment: Tumor cell proliferation assay (ATP Lite), C26; type: cell-based; details: Mus musculus, 96 h, 4 days
Method: (§1) Assay 2: Tumor Cell Proliferation Assays (ATP Lite)
(§2) Murine colon C26, human melanoma A375 and MeI5 or human pancreatic MiaPaCa-2 cells were plated in 96 well Corning white plates (1500 cells/well for C26, and 2000 cells/well for A375, and MiaPaCa-2) and cultured overnight at 37° C. in 5% CO2. Inhibitors were serially diluted in 100% DMSO and subsequently added to cells to reach a final concentration of 0.25% DMSO. The cells were incubated for 4 days in the presence of test compounds in cell growth media (DMEM with 10% fetal bovine serum, 2 mM glutamine for C26, and MiaPaCa-2, and RPMI with 10% fetal bovine serum, 2 mM glutamine for A375). Cell proliferation was quantitated using the ATP lite cell proliferation kit (Packard). Columns 4-6 show the concentration of compounds required to induce 50% cell death (IC50 in μM) of […]. With “+” meaning 3 μM<IC50≦10 μM and “++” IC50≦3 μM and “n.d.” means not determined. Few compounds were also tested on human melanoma cell MeI5.

human MEK1 = human MEK1 (Homo sapiens, UniProt Q02750); experiment: MEK-1 Enzyme Assay (LANCE-HTRF); type: biochemical; details: 100 nM MEK1, 15 μM ATP, 300 nM ERK2, two hours; read-out: MEK inhibition
Method: Assay 1: MEK-1 Enzyme Assay (LANCE-HTRF)
The activity of the compounds of the present invitation may be determined by the following procedure; Inhibition of human MEK1 kinase activity was monitored with a homogenous, fluorescence based assay. The assay uses time resolved fluorescence resonance energy transfer to probe for phosphorylation of ERK1 by MEK1. The assay is carried out in low volume 96 well microtiterplates. […] After two hours, 5 nM Europium-anti-PY20 (Perkin Elmer) and 50 nM Anti-GST-Allophycocyanin (CisBio) in buffer containing 50 mM EDTA and 0.05% BSA are added and the reaction incubated for one hour in the dark. Time-resolved fluorescence is measured using a LJL-Analyst (Molecular Devices) with an excitation wavelength of 340 nm and an emission wavelength of 665 nm. The final concentration of DMSO is 2%.

[1] = system: human melanoma A375 cells; experiment: Tumor cell proliferation assay (ATP Lite), A375; type: cell-based; details: A-375, 96 h, 4 days
Method: as §1, §2

[2] = system: human pancreatic MiaPaCa-2 cells; experiment: Tumor cell proliferation assay (ATP Lite), MiaPaCa-2; type: cell-based; details: MIA PaCa-2, 96 h, 4 days
Method: as §1, §2

human MEK1, sequence (Q02750 whole entry): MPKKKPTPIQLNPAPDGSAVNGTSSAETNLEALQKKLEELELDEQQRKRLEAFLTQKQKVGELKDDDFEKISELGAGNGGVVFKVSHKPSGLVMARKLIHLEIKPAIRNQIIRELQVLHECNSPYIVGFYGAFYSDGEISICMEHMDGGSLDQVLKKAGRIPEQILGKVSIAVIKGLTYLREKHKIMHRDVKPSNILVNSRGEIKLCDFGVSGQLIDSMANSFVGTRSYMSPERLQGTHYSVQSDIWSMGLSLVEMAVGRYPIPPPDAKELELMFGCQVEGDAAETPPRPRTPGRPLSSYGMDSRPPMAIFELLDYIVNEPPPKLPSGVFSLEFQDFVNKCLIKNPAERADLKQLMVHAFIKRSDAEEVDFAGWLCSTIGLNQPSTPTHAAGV

SMILES | IC50 (Murine colon C26 cells) [µM] | IC50 (human MEK1) [nM] | IC50 [1] [µM] | IC50 [2] [µM]
O=C(NNc1ccnc2cc(Cl)ccc12)c1ccncc1Nc1ccc(I)cc1F [Example 56, N′-(7-chloroquinolin-4-yl)-3-[(2-fluoro-4-iodophenyl)amino]-isonicotino-hydrazide] | 3 to 10 | 1000 to 10000 | ≤ 3 | 3 to 10
O=C(NC1CC2CCC1C2)c1ccncc1Nc1ccc(I)cc1F (stereo not shown) [Example 82, N-bicyclo[2.2.1]hept-2-yl-3-[(2-fluoro-4-iodophenyl)amino]-isonicotinamide] | 3 to 10 | < 1000 | ≤ 3 | 3 to 10
O=C(NCc1ccc(F)cc1F)c1ccncc1Nc1ccc(I)cc1F [Example 93, N-(2,4-difluorobenzyl)-3-[(2-fluoro-4-iodophenyl)amino]-isonicotinamide] | 3 to 10 | < 1000 | ≤ 3 | 3 to 10
O=C(NCCc1cccc(Cl)c1)c1ccncc1Nc1ccc(I)cc1F [Example 29, N-[2-(3-chlorophenyl)ethyl]-3-[(2-fluoro-4-iodophenyl)-amino]isonicotinamide] | 3 to 10 | < 1000 | ≤ 3 | 3 to 10
O=C(NNc1cc(C(F)(F)F)cc(C(F)(F)F)c1)c1ccncc1Nc1ccc(I)cc1F [Example 101] | 3 to 10 | < 1000 | ≤ 3 | 3 to 10
CCOC(CNC(=O)c1ccncc1Nc1ccc(I)cc1F)OCC [Example 98, N-(2,2-diethoxyethyl)-3-[(2-fluoro-4-iodophenyl)amino]-isonicotinamide] | 3 to 10 | < 1000 | ≤ 3 | 3 to 10
O=C(NNC(=O)c1n[nH]c2ccccc12)c1ccncc1Nc1ccc(I)cc1F [Example 28, N′-{3-[(2-fluoro-4-iodophenyl)amino]isonicotinoyl}-1H-indazole-3-carbohydrazide] | 3 to 10 | < 1000 | ≤ 3 | 3 to 10
O=C(NN1CCCCC1)c1ccncc1Nc1ccc(I)cc1F [Example 19, 3-[(2-fluoro-4-iodophenyl)amino]-N-piperidin-1-ylisonicotinamide] | 3 to 10 | < 1000 | ≤ 3 | ≤ 3
O=C(O)c1ccc(CNC(=O)c2ccncc2Nc2ccc(I)cc2F)cc1 [Example 46, 4-[({3-[(2-fluoro-4-iodophenyl)amino]isonicotinoyl}-amino)methyl]benzoic acid] | 3 to 10 | < 1000 | ≤ 3 | 3 to 10
CCONC(=O)c1ccncc1Nc1ccc(I)cc1Cl [Example 76] | 3 to 10 | < 1000 | ≤ 3 | 3 to 10
O=C(NCCN1CCOCC1)c1cc(Br)ncc1Nc1ccc(I)cc1F [Example 88, 2-Bromo-5-(2-fluoro-4-iodo-phenylamino)-N-(2-morpholin-4-yl-ethyl)-isonicotinamide] | 3 to 10 | < 1000 | 3 to 10 | 3 to 10
NC1CCN(C(=O)c2ccncc2Nc2ccc(I)cc2F)CC1 [Example 44, 4-[(4-aminopiperidin-1-yl)carbonyl]-N-(2-fluoro-4-iodophenyl)pyridin-3-amine hydrochloride] | 3 to 10 | < 1000 | ≤ 3 | 3 to 10
Cc1ccc(CC(=O)NC2CCN(C(=O)c3ccncc3Nc3ccc(I)cc3F)CC2)cc1 [Example 86, N-(1-{3-[(2-fluoro-4-iodophenyl)amino]isonicotinoyl}piperidin-4-yl)-2-(4-methylphenyl)acetamide] | 3 to 10 | < 1000 | ≤ 3 | 3 to 10
O=C(NCCN1CCCCC1)c1ccncc1Nc1ccc(I)cc1F [Example 33, 3-[(2-fluoro-4-iodophenyl)amino]-N-(2-piperidin-1-ylethyl)-isonicotinamide] | ≤ 3 | < 1000 | ≤ 3 | ≤ 3

Results, then the compound that gave them:

IC50 (Murine colon C26 cells) [µM] | IC50 (human MEK1) [nM] | IC50 [1] [µM] | IC50 [2] [µM] | SMILES
≤ 3 | < 1000 | ≤ 3 | ≤ 3 | O=C(NCCCn1ccnc1)c1ccncc1Nc1ccc(I)cc1F [Example 20, 3-[(2-fluoro-4-iodophenyl)amino]-N-[3-(1H-imidazol-1yl)propyl]-isonicotinamide]
≤ 3 | < 1000 | ≤ 3 | ≤ 3 | NC(=O)c1cc[n+]([O-])cc1Nc1ccc(I)cc1F [Example 97, 3-(2-Fluoro-4-iodo-phenylamino)-1-oxy-isonicotinamide]
≤ 3 | < 1000 | ≤ 3 | ≤ 3 | NC(=O)c1ccncc1Nc1ccc(I)cc1Cl [Example 11, 3-[(2-chloro-4-iodophenyl)amino]isonicotinamide]
≤ 3 | < 1000 | ≤ 3 | ≤ 3 | O=C(NN1CCOCC1)c1ccncc1Nc1ccc(I)cc1F [Example 25, 3-[(2-fluoro-4-iodophenyl)amino]-N-morpholin-4-ylisonicotin-amide]
≤ 3 | < 1000 | ≤ 3 | ≤ 3 | O=C(NCCO)c1ccncc1Nc1ccc(I)cc1F [Example 15, 3-(2-Fluoro-4-iodo-phenylamino)-N-(2-hydroxy-ethyl)-isonicotinamide]
≤ 3 | < 1000 | ≤ 3 | ≤ 3 | NC(=O)c1ccncc1Nc1ccc(I)cc1 [Example 67, 3-(4-iodo-phenylamino)-isonicotinamide]
≤ 3 | < 1000 | ≤ 3 | ≤ 3 | CN(C)C(=O)c1ccncc1Nc1ccc(I)cc1Cl [Example 23, 3-[(2-chloro-4-iodophenyl)amino]-N-dimethylisonicotinamide]
≤ 3 | < 1000 | ≤ 3 | ≤ 3 | O=C(NC1CCC1)c1ccncc1Nc1ccc(I)cc1F [Example 58, N-cyclobutyl-3-[(2-fluoro-4-iodophenyl)amino]isonicotinamide]
≤ 3 | < 1000 | ≤ 3 | ≤ 3 | O=C(NC1CCCC1)c1ccncc1Nc1ccc(I)cc1F [Example 60, N-cyclopentyl-3-[(2-fluoro-4-iodophenyl)amino]isonicotinamide]
≤ 3 | < 1000 | ≤ 3 | ≤ 3 | O=C(NCCCCl)c1ccncc1Nc1ccc(I)cc1F [Example 79, N-(3-chloropropyl)-3-[(2-fluoro-4-iodophenyl)-amino]isonicotinamide]
≤ 3 | < 1000 | ≤ 3 | ≤ 3 | O=C(NNc1ccccn1)c1ccncc1Nc1ccc(I)cc1F [Example 49, 3-[(2-fluoro-4-iodophenyl)amino]-N′-pyridin-2-ylisonicotino-hydrazide]
≤ 3 | < 1000 | ≤ 3 | ≤ 3 | O=C(NOC[C@H](O)CO)c1ccncc1Nc1ccc(I)cc1Cl [Example 8, 3-[(2-chloro-4-iodophenyl)amino]-N-{[(2R)-2,3-dihydroxypropyl]oxy}-isonicotinamide]
≤ 3 | < 1000 | ≤ 3 | ≤ 3 | O=C(NOC[C@@H](O)CO)c1ccncc1Nc1ccc(I)cc1F [Example 75, N-{[(2S)-2,3-dihydroxypropyl]oxy}-3-[(2-fluoro-4-iodophenyl)-amino]isonicotin-amide]
≤ 3 | < 1000 | ≤ 3 | ≤ 3 | O=C(NCCCO)c1cc(Br)ncc1Nc1ccc(I)cc1F [Example 70, 2-Bromo-5-(2-fluoro-4-iodo-phenylamino)-N-(3-hydroxy-propyl)-isonicotinamide]
≤ 3 | < 1000 | ≤ 3 | ≤ 3 | CC(O)CNC(=O)c1ccncc1Nc1ccc(I)cc1F (stereo not shown) [Example 14, 3-[(2-fluoro-4-iodophenyl)amino]-N-(2-hydroxypropyl)-isonicotinamide]
≤ 3 | < 1000 | ≤ 3 | ≤ 3 | O=C(NCC(O)COc1ccccc1)c1ccncc1Nc1ccc(I)cc1F (stereo not shown) [Example 83]
≤ 3 | < 1000 | ≤ 3 | ≤ 3 | O=C(NOC[C@H](O)CO)c1ccncc1Nc1ccc(I)cc1 [Example 96, N-{[(2R)-2,3-dihydroxypropyl]oxy}-3-(4-iodophenylamino)-isonicotinamide]
